{"source": "patent US20060128792A1", "about": "“Deguelin as a chemopreventive agent for lung cancer” (priority 2002, published 2006)", "key": {"[1]": {"system": "H1299 and squamous HBE cells", "experiment": "Apoptosis by flow cytometry (FACS)", "type": "cell-based", "settings": "10^−7 M deguelin, by day 2 or day 3", "description": "Apoptosis assay. Normal, premalignant, and malignant HBE cells were exposed to v various doses of deguelin for 3 days. […] Both adherent and floating cells were combined for the assessment of apoptosis using the APO-BRDU staining kit (Phoenix Flow Systems, San Diego, Calif.). Briefly, floating and attached cells dispersed with trypsin-EDTA were pelleted, washed, and fixed by 1% paraformaldehyde followed by 70% ethanol. The fixed cells were washed and incubated with DNA-labeling solution containing terminal deoxynucleotidyl transferase (TdT) reaction buffer, TdT enzyme, and bromodeoxyuridine triphosphate (Br-dUTP). Cells were rinsed, resuspended with fluorescein-PRB-I antibody solution, and analyzed by flow cytometry in the presence of PI/RNase solution. […] A dual display of DNA area (linear red fluorescence) and Br-dUTP incorporation (FITC-PRB-1) was used to determine the percentage of apoptotic cells.\n(§1) The apoptotic effect of deguelin was further assessed in HBE cells. […] Apoptosis was analyzed by flow cytometry as described above. […] To confirm the apoptotic activity in these cells, bax and bcl-2 expression were analyzed by western blotting. […] Thus, it was determined that deguelin increases bax expression thereby inducing the apoptotic activity in lung cancer cells."}, "[2]": {"system": "chorioallantoic membrane (CAM) vessel formation", "experiment": "CAM assay, anti-angiogenic activity", "type": "in vivo, chick embryos", "description": "The anti-angiogenic activity of deguelin was assessed using a CAM assay. Chick embryos were incubation for 3 days after which, about 2 ml of egg albumin was removed from the embryo with a hypodermic needle to allow the CAM and yolk sac to drop away from the shell membrane. On day 3.5, the shell was punched out and removed and the shell membrane was peeled away. […] After the two day incubation period, 500 μl of 10% fat emulsion was injected into the chorioallantoic membrane and observed microscopically.\nRetinoic acid, an anti-angiogenic compound, was used as a positive control for determining anti-angiogenic response. […] This independent experiment was repeated three times with more than 20 eggs."}, "[3]": {"system": "bax and bcl-2 in lung cancer cell lines", "experiment": "Western blot of bax and bcl-2", "type": "cell-based", "settings": "10^−7 M deguelin", "description": "Immunoblotting. Whole cell lysates were prepared in lysis buffer (50 mM N-[2-[…]]-piperazine-N′-[2-ethanesulfonic acid] [HEPES; pH 7.5], 150 mM NaCl, 1.5 mM MgCl2, ImM EDTA, 0.2 mM EGTA, 1% NP40, 10% glycerol, 1 mM dithiothreitol (DTT), 1 mM phenylmethylsulfonyl fluoride, 20 mM sodium fluoride, 5 mM sodium orthovanadate, 10 μg/ml aprotinin, 10 μg/ml leupeptin, 2 μg/ml pepstatin, and 1 mM benzamidine) as described previously (Lee et al., 2002). Equivalent protein concentrations were resolved in sodium dodecyl sulfate-polyacrylamide gels and transferred to a nitrocellulose membrane. After the blocking of transblotted membrane in Tris-buffered saline (TBS) containing 0.05% Tween 20 (TBST) and 5% low fat milk, themembrane was incubated with primary antibody at the appropriate dilution in TBS-5% low-fat milk at 4° C. for 16 h and washed with TBST. The immunoblots were visualized using the ECL kit (Amersham, Inc., Arlington Heights, III) according to the manufacturer's directions. […]\nas §1"}, "[4]": {"system": "Cal6", "experiment": "MTT assay, growth inhibition by deguelin or deguelin derivatives", "type": "cell-based", "settings": "3 days"}, "[5]": {"system": "premalignant (1799, 1198) and malignant (1170) HBE cell lines", "experiment": "MTT assay, growth of premalignant and malignant HBE cell lines", "type": "cell-based", "settings": "HBE, 72 h, read-out: IC50, growth of premalignant and malignant HBE cell lines", "text": "Cells and Cell Cultures. […] Tumors developed 6 months later. […] (Klein-Szanto et al., 1992)."}, "[6]": {"system": "breast, prostate, head & neck and ovarian cancer cells", "experiment": "MTT assay, growth inhibition in other cancer cells", "type": "cell-based", "settings": "10^−9 M to 10^−6 M, 3 or 5 days; more effective at 10^−7 M to 10^−6 M", "description": "It was next determined whether deguelin can inhibit cell growth in cancer cells other than lung cancer cells. Cancer cells, such as breast, prostate, head & neck and ovarian cells were treated with 10^−6 M, 10^−7 M, 10^−8 M, or 10^−9 M deguelin for 3 or 5 days, and cell growth inhibition analyzed by MTT assay."}, "[7]": {"system": "Sk-mes", "experiment": "MTT assay, growth inhibition by deguelin or deguelin derivatives", "type": "cell-based", "settings": "3 days"}, "[8]": {"system": "cell line not named (Table 1)", "experiment": "MTT assay, growth inhibition by deguelin", "type": "cell-based", "settings": "3 days"}}, "note": "“And” between values parts separate entries of the source, which are not always exact repeats. Identical values can stand only once."}
{"smiles": "COc1cc2c(cc1OC)[C@@H]1C(=O)c3ccc4c(c3O[C@@H]1CO2)C=CC(C)(C)O4", "note": "[Deguelin]", "values": [{"measurement": "apoptosis (flow cytometry)", "setting": "[1]", "value": "≥ 60", "unit": "%"}, {"measurement": "anti-angiogenic activity (percentage of positive eggs)", "setting": "[2]; 5 nmol/egg, 2 days", "value": 59.2, "unit": "%"}, {"measurement": "egg lethality", "setting": "[2]; CAM assay, without any signs of thrombosis and hemorrhage", "value": "negligible"}, {"measurement": "Bcl-2 expression", "setting": "[3]", "value": "not found to be regulated"}, {"measurement": "bax expression", "setting": "[3]", "value": "Increased"}, {"measurement": "Avg. % con", "setting": "[4]; deguelin 10^−6M", "value": 0.24, "unit": "% con"}, {"measurement": "MTT value, mean of replicates (unheaded line)", "setting": "[4]; deguelin 10^−6M", "value": 0.094}, {"measurement": "MTT value, replicate (unheaded line)", "setting": "[4]; deguelin 10^−6M", "value": "0.098 and 0.106 and 0.078"}, {"measurement": "Avg. % con", "setting": "[4]; deguelin 10^−8M", "value": 0.88, "unit": "% con"}, {"measurement": "MTT value, mean of replicates (unheaded line)", "setting": "[4]; deguelin 10^−8M", "value": 0.345}, {"measurement": "MTT value, replicate (unheaded line)", "setting": "[4]; deguelin 10^−8M", "value": "0.356 and 0.338 and 0.341"}, {"measurement": "Avg. % con", "setting": "[4]; deguelin 10^−10M", "value": 0.93, "unit": "% con"}, {"measurement": "MTT value, mean of replicates (unheaded line)", "setting": "[4]; deguelin 10^−10M", "value": 0.364}, {"measurement": "MTT value, replicate (unheaded line)", "setting": "[4]; deguelin 10^−10M", "value": "0.332 and 0.386 and 0.374"}, {"measurement": "Avg. % con", "setting": "[4]; deguelin 10^−12M", "value": 0.92, "unit": "% con"}, {"measurement": "MTT value, mean of replicates (unheaded line)", "setting": "[4]; deguelin 10^−12M", "value": 0.360}, {"measurement": "MTT value, replicate (unheaded line)", "setting": "[4]; deguelin 10^−12M", "value": "0.357 and 0.358 and 0.366"}, {"measurement": "IC50", "setting": "[5]", "value": "< 1", "unit": "nM"}, {"measurement": "cell proliferation in breast, prostate, head & neck and ovarian cancer cells", "setting": "[6]", "value": "inhibit cell proliferation in these cells in a dose dependent manner"}, {"measurement": "Avg. % con", "setting": "[7]; deguelin 10^−6M", "value": 0.45, "unit": "% con"}, {"measurement": "MTT value, mean of replicates (unheaded line)", "setting": "[7]; deguelin 10^−6M", "value": 0.121}, {"measurement": "MTT value, replicate (unheaded line)", "setting": "[7]; deguelin 10^−6M", "value": "0.107 and 0.135 and 0.122"}, {"measurement": "Avg. % con", "setting": "[7]; deguelin 10^−8M", "value": 0.79, "unit": "% con"}, {"measurement": "MTT value, mean of replicates (unheaded line)", "setting": "[7]; deguelin 10^−8M", "value": 0.211}, {"measurement": "MTT value, replicate (unheaded line)", "setting": "[7]; deguelin 10^−8M", "value": "0.207 and 0.209 and 0.216"}, {"measurement": "Avg. % con", "setting": "[7]; deguelin 10^−10M", "value": 0.92, "unit": "% con"}, {"measurement": "MTT value, mean of replicates (unheaded line)", "setting": "[7]; deguelin 10^−10M", "value": 0.247}, {"measurement": "MTT value, replicate (unheaded line)", "setting": "[7]; deguelin 10^−10M", "value": "0.243 and 0.223 and 0.274"}, {"measurement": "Avg. % con", "setting": "[7]; deguelin 10^−12M", "value": 0.96, "unit": "% con"}, {"measurement": "MTT value, mean of replicates (unheaded line)", "setting": "[7]; deguelin 10^−12M", "value": 0.258}, {"measurement": "MTT value, replicate (unheaded line)", "setting": "[7]; deguelin 10^−12M", "value": "0.253 and 0.258 and 0.264"}, {"measurement": "Avg. % con", "setting": "[8]; deguelin 10^−6M", "value": 0.82, "unit": "% con"}, {"measurement": "MTT value, mean of replicates (unheaded line)", "setting": "[8]; deguelin 10^−6M", "value": 0.304}, {"measurement": "MTT value, replicate (unheaded line)", "setting": "[8]; deguelin 10^−6M", "value": "0.306 (2×) and 0.299 and 0.305"}, {"measurement": "Avg. % con", "setting": "[8]; deguelin 10^−8M", "value": 0.78, "unit": "% con"}, {"measurement": "MTT value, mean of replicates (unheaded line)", "setting": "[8]; deguelin 10^−8M", "value": 0.2908}, {"measurement": "MTT value, replicate (unheaded line)", "setting": "[8]; deguelin 10^−8M", "value": "0.288 and 0.291 and 0.283 and 0.301"}, {"measurement": "Avg. % con", "setting": "[8]; deguelin 10^−10M", "value": 0.90, "unit": "% con"}, {"measurement": "MTT value, mean of replicates (unheaded line)", "setting": "[8]; deguelin 10^−10M", "value": 0.3348}, {"measurement": "MTT value, replicate (unheaded line)", "setting": "[8]; deguelin 10^−10M", "value": "0.337 and 0.327 and 0.343 and 0.332"}, {"measurement": "Avg. % con", "setting": "[8]; deguelin 10^−12M", "value": 1.01, "unit": "% con"}, {"measurement": "MTT value, mean of replicates (unheaded line)", "setting": "[8]; deguelin 10^−12M", "value": 0.3768}, {"measurement": "MTT value, replicate (unheaded line)", "setting": "[8]; deguelin 10^−12M", "value": "0.392 and 0.386 and 0.367 and 0.362"}]}
